From PubChem BioAssay AID256 (DTP/NCI, 2004) come the findings set out here.

Values joined by “and” are separate entries in the source; they are usually repeats but may differ in a detail not shown here. Equal entries are not always repeated. Inconclusive results and toxic doses are left out.

The test system of the experiment is CD2F1 mice, L1210 leukemia ip, survival T/C. The experiment can be described thus: NCI In Vivo Anticancer Drug Screen. Data for tumor model L1210 Leukemia (intraperitoneal) in CD2F1 (CDF1) mice. Particulars: endpoint: mean survival time, higher = longer survival. A digest of the protocol: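 Read-out first: treated-group measurement over vehicle-control measurement, expressed as a ratio. Animals bore a transplanted tumor line and were dosed with compound or vehicle.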

Setting [1] is: dose: 3.13 mg/kg/injection, schedule: Q04DX003 (ip), vehicle: saline with Tween-80.
[2] abbreviates: dose: 100.0 mg/kg/injection, schedule: Q04DX003 (ip), vehicle: saline with Tween-80.
Setting [3] is: dose: 200.0 mg/kg/injection, schedule: Q04DX003 (ip), vehicle: saline with Tween-80.
Setting [4] is: dose: 400.0 mg/kg/injection, schedule: Q04DX003 (ip), vehicle: saline with Tween-80.
Where [5] appears, read: dose: 200.0 mg/kg/injection, schedule: Q01DX009 (ip), vehicle: saline with Tween-80.
[6] abbreviates: dose: 100.0 mg/kg/injection, schedule: Q04DX002 (ip), vehicle: saline with Tween-80.
Setting [7] is: dose: 200.0 mg/kg/injection, schedule: Q04DX002 (ip), vehicle: saline with Tween-80.
The mark [8] stands for this setting: dose: 400.0 mg/kg/injection, schedule: Q04DX002 (ip), vehicle: saline with Tween-80.
[9] abbreviates: dose: 50.0 mg/kg/injection, schedule: Q01DX009 (ip), vehicle: Klucel (hydroxypropylcellulose) (HPC).
Where [10] appears, read: dose: 100.0 mg/kg/injection, schedule: Q01DX009 (ip), vehicle: Klucel (hydroxypropylcellulose) (HPC).
Setting [11] is: dose: 200.0 mg/kg/injection, schedule: Q01DX009 (ip), vehicle: Klucel (hydroxypropylcellulose) (HPC).
[12] abbreviates: dose: 100.0 mg/kg/injection, schedule: Q01DX009 (ip), vehicle: saline with Tween-80.
The mark [13] stands for this setting: dose: 400.0 mg/kg/injection, schedule: Q01DX009 (ip), vehicle: saline with Tween-80.
[14] abbreviates: dose: 100.0 mg/kg/injection, schedule: Q04DX003 (ip), vehicle: saline.
Setting [15] is: dose: 200.0 mg/kg/injection, schedule: Q04DX003 (ip), vehicle: saline.
Where [16] appears, read: dose: 100.0 mg/kg/injection, schedule: Q01DX009 (ip), vehicle: saline.
Setting [17] is: dose: 200.0 mg/kg/injection, schedule: Q01DX009 (ip), vehicle: saline.

Turning to `CCOC(=O)C[P+](c1ccccc1)(c1ccccc1)c1ccccc1`, the T/C was 93 % of control (dose: 3.13 mg/kg/injection, schedule: Q01DX009 (ip), vehicle: saline sonified); 98 % of control under setting [1]; 94 % of control (dose: 6.25 mg/kg/injection, schedule: Q01DX009 (ip), vehicle: saline sonified); 98 % of control (dose: 6.25 mg/kg/injection, schedule: Q04DX003 (ip), vehicle: saline with Tween-80); 93 % of control (dose: 12.5 mg/kg/injection, schedule: Q01DX009 (ip), vehicle: saline sonified); 98 % of control (dose: 12.5 mg/kg/injection, schedule: Q04DX003 (ip), vehicle: saline with Tween-80). Besides, the T/C (dose: 25.0 mg/kg/injection, schedule: Q01DX009 (ip), vehicle: saline sonified) was 93 % of control and the T/C (dose: 25.0 mg/kg/injection, schedule: Q04DX003 (ip), vehicle: saline with Tween-80) was 95 % of control.
As for `Clc1nnc(Cl)c(Cl)c1Cl`, the T/C by setting is: (dose: 1.56 mg/kg/injection, schedule: Q04DX003 (ip), vehicle: saline with Tween-80) 88 % of control; under setting [1], 88 % of control.
For the compound `O=[N+]([O-])c1ccc(N/N=C(\c2ccccc2)C2OCCC2c2ccccc2)c([N+](=O)[O-])c1` (stereo not drawn), the T/C is, setting by setting: under setting [2], 97 % of control; under setting [3], 91 % of control; under setting [4], 94 % of control.
As to `NC(=O)N/N=C/c1cccs1`, the T/C is, setting by setting: (dose: 50.0 mg/kg/injection, schedule: Q01DX009 (ip), vehicle: saline with Tween-80) 89 % of control; under setting [5], 97 % of control; under setting [3], 87 % of control; under setting [4], 91 % of control.
Turning to `CCOC(=O)CC1(c2ccccc2)OC(=O)c2ccccc21` (stereo not drawn), the T/C by setting is: under setting [6], 102 % of control; under setting [7], 87 % of control; under setting [8], 87 % of control.
Take `CC(=O)Nc1ccccc1N`: the T/C by setting is: under setting [9], 100 % of control; under setting [10], 94 % of control; under setting [11], 103 % of control; (dose: 400.0 mg/kg/injection, schedule: Q01DX009 (ip), vehicle: Klucel (hydroxypropylcellulose) (HPC)) 107 % of control.
In the case of `C(#Cc1ccccc1)/C=C/C(=C\c1ccccc1)c1ccccc1`, the T/C was 92 % of control (dose: 100.0 mg/kg/injection, schedule: Q01DX001 (ip), vehicle: saline with Tween-80); 89 % of control (dose: 200.0 mg/kg/injection, schedule: Q01DX001 (ip), vehicle: saline with Tween-80); 87 % of control (dose: 400.0 mg/kg/injection, schedule: Q01DX001 (ip), vehicle: saline with Tween-80).
With `C=C1C(=O)OC2CC1C(OC(=O)/C=C/c1ccccc1)C/C(C)=C/CC/C(C)=C/CCC2(C)O` (stereo not drawn), the T/C is, setting by setting: (dose: 12.5 mg/kg/injection, schedule: Q01DX009 (ip), vehicle: Klucel (hydroxypropylcellulose) (HPC)) 96 % of control; (dose: 25.0 mg/kg/injection, schedule: Q01DX009 (ip), vehicle: Klucel (hydroxypropylcellulose) (HPC)) 98 % of control; under setting [9], 98 % of control; under setting [10], 102 % of control.
Regarding `CCc1cc(CSc2ccc(Cl)cc2)ccc1N`, the T/C runs as follows: under setting [2], 102 % of control; under setting [3], 100 % of control; under setting [4], 98 % of control.
On to `C=CCCCCCCCCC(=O)NN1CCOCC1`, for which the T/C under setting [12] was 94 % of control, the T/C under setting [5] is 91 % of control and the T/C under setting [13] was 94 % of control.
In the case of `O=C(OCC1OC([Se])C(OC(=O)c2ccccc2)C(OC(=O)c2ccccc2)C1OC(=O)c1ccccc1)c1ccccc1.[CH3][Sb][CH3]` (stereo not drawn), the T/C is, setting by setting: under setting [9], 100 % of control; under setting [10], 103 % of control; under setting [11], 100 % of control.
Take `CC12CCCC1=[N+]1CCCCC1CC2=O` (stereo not drawn): the T/C was 101 % of control under setting [14] and 101 % of control under setting [15].
Take `Cc1ccn(C)c(=O)c1`: the T/C under setting [16] was 103 % of control; the T/C under setting [17] is 104 % of control; the T/C (dose: 400.0 mg/kg/injection, schedule: Q01DX009 (ip), vehicle: saline) was 101 % of control.
For `COc1ccccc1NC(=O)Oc1c(C)cccc1C`, the T/C is 92 % of control under setting [6], 100 % of control under setting [7] and 111 % of control under setting [8].
In the case of `O=[N+]([O-])c1ccc(O)c(C[P+](c2ccccc2)(c2ccccc2)c2ccccc2)c1`, the T/C by setting is: under setting [12], 93 % of control; under setting [5], 95 % of control; under setting [13], 102 % of control.
With `CNC=O`, the T/C under setting [16] was 103 % of control and 111 % of control; the T/C under setting [17] was 112 % of control; the T/C (dose: 800.0 mg/kg/injection, schedule: Q01DX009 (ip), vehicle: saline) is 164 % of control.
Consider `CCOc1ccc(N=[N+]([O-])c2ccc(OCC)cc2)cc1`, for which the T/C is 90 % of control under setting [12]; 96 % of control under setting [2]; 97 % of control under setting [5]; 98 % of control under setting [3]; 96 % of control under setting [13]; 101 % of control under setting [4].
For `COc1ccc(N2CC=C(c3ccccc3)OP2(=O)N(CCCl)CCCl)cc1` (stereo not drawn), the T/C runs as follows: (dose: 31.25 mg/kg/injection, schedule: Q01DX001 (ip), vehicle: saline) 102 % of control; (dose: 62.5 mg/kg/injection, schedule: Q01DX001 (ip), vehicle: saline) 100 % of control; (dose: 125.0 mg/kg/injection, schedule: Q01DX001 (ip), vehicle: saline) 100 % of control; (dose: 250.0 mg/kg/injection, schedule: Q01DX001 (ip), vehicle: saline) 100 % of control; (dose: 500.0 mg/kg/injection, schedule: Q01DX001 (ip), vehicle: saline) 100 % of control.
With `Nc1c([N+](=O)[O-])ccc2ccccc12`, the T/C is, setting by setting: under setting [12], 95 % of control; under setting [2], 93 % of control; under setting [5], 93 % of control; under setting [3], 93 % of control; under setting [13], 92 % of control; under setting [4], 92 % of control.
Take `COCCOCCOCCOCCOCCN`: the T/C is, setting by setting: under setting [14], 103 % of control; under setting [15], 101 % of control; (dose: 400.0 mg/kg/injection, schedule: Q04DX003 (ip), vehicle: saline) 103 % of control.
On to `CC(=O)Oc1ccc2c(c1)C(=O)CCCCCC(=O)O2`, for which the T/C by setting is: (dose: 12.5 mg/kg/injection, schedule: Q01DX009 (ip), vehicle: saline) 100 % of control; (dose: 12.5 mg/kg/injection, schedule: Q04DX003 (ip), vehicle: saline) 97 % of control; (dose: 25.0 mg/kg/injection, schedule: Q01DX001 (ip), vehicle: saline) 98 % of control; (dose: 25.0 mg/kg/injection, schedule: Q01DX009 (ip), vehicle: saline) 97 % of control; (dose: 25.0 mg/kg/injection, schedule: Q04DX003 (ip), vehicle: saline) 98 % of control; (dose: 50.0 mg/kg/injection, schedule: Q01DX001 (ip), vehicle: saline) 110 % of control. Besides, the T/C is 94 % of control (dose: 50.0 mg/kg/injection, schedule: Q01DX009 (ip), vehicle: saline); 111 % of control (dose: 50.0 mg/kg/injection, schedule: Q04DX003 (ip), vehicle: saline); 98 % of control (dose: 100.0 mg/kg/injection, schedule: Q01DX001 (ip), vehicle: saline); 95 % of control under setting [16]; 120 % of control under setting [14]; 100 % of control (dose: 200.0 mg/kg/injection, schedule: Q01DX001 (ip), vehicle: saline). Besides, the T/C under setting [17] is 89 % of control; the T/C under setting [15] was 102 % of control; the T/C (dose: 400.0 mg/kg/injection, schedule: Q01DX001 (ip), vehicle: saline) is 111 % of control.
`CN(C)C1c2ccccc2-c2ccc([N+](=O)[O-])cc21` (stereo not drawn): the T/C runs as follows: (dose: 50.0 mg/kg/injection, schedule: Q01DX001 (ip), vehicle: carboxymethylcellulose (CMC)) 107 % of control; (dose: 100.0 mg/kg/injection, schedule: Q01DX001 (ip), vehicle: carboxymethylcellulose (CMC)) 101 % of control; (dose: 200.0 mg/kg/injection, schedule: Q01DX001 (ip), vehicle: carboxymethylcellulose (CMC)) 101 % of control; (dose: 400.0 mg/kg/injection, schedule: Q01DX001 (ip), vehicle: carboxymethylcellulose (CMC)) 101 % of control.
